The values below come from article PMC9133036 (Nature Communications, 2022).

Structures are written as SMILES. Numbering of substitutions follows the chain as printed. “And” between values parts separate entries of the source, which are not always exact repeats. Equal entries are not always repeated. Where two headings read alike, the source gives them in different places.

In one test the target is T1, OX2R T111S/T135A (Homo sapiens, UniProt O43614, T111S/T135A).
T1 construct: FLAG; expressed in transfected cells; host or cells: HEK293
T1 sequence (O43614 1-444 T111S/T135A): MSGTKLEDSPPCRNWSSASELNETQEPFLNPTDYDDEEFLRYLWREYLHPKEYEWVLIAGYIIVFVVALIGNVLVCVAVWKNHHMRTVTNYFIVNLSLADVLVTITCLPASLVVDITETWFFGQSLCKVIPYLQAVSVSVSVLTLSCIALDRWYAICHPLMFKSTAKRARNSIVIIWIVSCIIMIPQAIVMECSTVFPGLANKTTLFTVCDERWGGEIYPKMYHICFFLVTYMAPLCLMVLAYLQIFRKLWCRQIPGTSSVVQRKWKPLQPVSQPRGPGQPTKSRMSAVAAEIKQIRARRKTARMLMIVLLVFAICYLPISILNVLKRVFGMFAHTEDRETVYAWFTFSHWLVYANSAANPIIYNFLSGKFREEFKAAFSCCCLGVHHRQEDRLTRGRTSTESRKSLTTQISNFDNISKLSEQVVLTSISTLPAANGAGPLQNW
In words: IP accumulation assay, OX2R T111S/T135A. Type of test: cell-based. The note with it: for EC50: IP accumulation. From the text:
(§1) The IP assay was adapted from a prior precedent. HEK293 cells were maintained in DMEM-high glucose (Millipore Sigma) supplemented with 5% fetal bovine serum (Corning) and penicillin-streptomycin (Millipore Sigma). Receptor constructs used were the full-length wild-type (or mutant) human OX1R and OX2R sequences cloned into pCDNA3. To enhance the Emax in the IP assay, a plasmid encoding full-length human Gαq subunit[66] was co-transfected into HEK293 cells with plasmids encoding orexin receptor constructs using Lipofectamine 3000 (Thermo Fisher). 24 h after transfection, the cells were plated on poly-D-lysine coated (Millipore Sigma) tissue culture-treated 96 well white plates with clear bottoms (Perkin Elmer) at 30,000 cells per well in Inositol-free DMEM (MP Biomedicals) supplemented with 5% fetal bovine serum, 4 mM L-glutamine (Millipore Sigma), penicillin-streptomycin, and about 5 uCi (5 ul) per ml myo-[2-3H] inositol (Perkin Elmer). The following day, the media was replaced with agonists that were diluted in HBSS (Millipore Sigma) containing 10 mM lithium chloride (Millipore Sigma) and incubated at 37 °C for 45 min. Then agonists were removed and cells were lysed on ice for 30 min with 10 mM formic acid (Millipore Sigma). 1.25 mg of poly-lysine coated YSI SPA beads (Perkin Elmer) was added to each well. The plates were mixed on an orbital shaker for 30 min. The plates were read on a MicroBeta scintillation counter (Perkin Elmer) the following day. IP accumulation assays on different constructs were performed in n ≥ 3 independent experiments (each done in duplicate), where n is shown in Supplementary Table 2.

Another test concerns the target T2, human OX1R wild-type (Homo sapiens, UniProt O43613).
T2 construct: FLAG; expressed in transfected cells; host or cells: HEK293
T2 sequence (O43613 1-425): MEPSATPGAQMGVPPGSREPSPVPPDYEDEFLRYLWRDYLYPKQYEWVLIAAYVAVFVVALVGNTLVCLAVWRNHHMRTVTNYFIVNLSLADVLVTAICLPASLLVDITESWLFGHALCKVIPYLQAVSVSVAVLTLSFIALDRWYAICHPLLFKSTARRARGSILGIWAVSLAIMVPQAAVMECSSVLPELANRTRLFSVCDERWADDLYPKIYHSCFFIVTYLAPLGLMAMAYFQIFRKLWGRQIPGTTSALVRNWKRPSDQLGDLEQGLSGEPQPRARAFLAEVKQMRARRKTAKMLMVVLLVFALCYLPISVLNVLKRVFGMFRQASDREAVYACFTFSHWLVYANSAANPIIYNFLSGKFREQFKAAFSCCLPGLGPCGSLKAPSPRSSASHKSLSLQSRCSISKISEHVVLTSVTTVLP
As to the kind of experiment: IP accumulation assay, OX1R WT. The class given is cell-based.
Text: as §1

A further test has as its system OX2R. The note with it: cited from earlier work.
In a further test the target is T3, OX2R Q134A (Homo sapiens, UniProt O43614, Q134A).
T3 sequence (O43614 1-444 Q134A): T1 sequence (O43614 1-444 T111S/T135A) with S111T, Q134A, A135T
As to the kind of experiment: β-arrestin PathHunter assay, OX2R Q134A. Conditions: for EC50: β-arrestin recruitment. Also on record: expressed in transfected cells; host or cells: CHO-K1 stably expressing EA β-arrestin2. The class given is cell-based. How it is done: β-Arrestin recruitment activity was measured by using the PathHunter system (DiscoveRX) according to the manufacturer’s instruction. Receptor constructs used were the full-length wild-type (or mutant) human OX2R sequences cloned into pCMV-ProLink (DiscoveRX). CHO-K1 cells stably expressing EA β-arrestin2 (DiscoveRX) were plated on 384 well white plates (Thermo Fisher) at 4000 cells/well in HamF12 (Wako Pure Chemical Industries) supplemented with 10% fetal bovine serum (Corning) and penicillin-streptomycin (Wako Pure Chemical Industries) and incubated overnight at 37 °C under 5% CO2. Cells were transfected with plasmids encoding wild type or each mutant ProLink-tagged human OX2R using FuGENE HD (Promega). […] Detection reagent was added and incubated for 1 h at room temperature. Luminescent signal was detected using an EnVision plate reader (PerkinElmer). β-arrestin assays on different constructs were performed in two or three independent experiments (each done in quadruplicate). Dose response curves (shown in Supplementary Fig. 8) were fitted to the three-parameter model ‘log(agonist) vs response’ in GraphPad Prism to determine pEC50 values.
(In general: Recruitment of arrestin is a read-out of receptor activation apart from second messengers.)

[1] abbreviates: pEC50 ± SEM, read-out: pEC50 (converted).

As to `COC(=O)N1CCC[C@H](NS(C)(=O)=O)[C@@H]1CO[C@H]1CC[C@@H](c2ccccc2)CC1` [TAK-925, methyl (2R,3S)−3-[(methylsulfonyl)amino]−2-{[(cis−4-phenylcyclohexyl)oxy]methyl}piperidine-1-carboxylate], the EC50 on OX2R T111S/T135A (setting [1]) was 3.98 µM; at OX2R T111S/T135A (read-out: EC50) it was 3.6 µM; on human OX1R wild-type (IP accumulation, non-saturating) it was above 100 µM; at OX2R Q134A (setting [1]), above 30.2 µM; at OX2R Q134A (read-out: EC50) it was above 30 µM. The “% IP accumulation” value at OX2R T111S/T135A (TAK-925 conc (log, M) -4.00) is 75.61% and 80.32% and 68.16%; on OX2R T111S/T135A (TAK-925 conc (log, M) -4.48), 79.41% and 78.58% and 59.24%; on OX2R T111S/T135A (TAK-925 conc (log, M) -4.95), 63.00% and 60.94% and 53.37%; at OX2R T111S/T135A (TAK-925 conc (log, M) -5.43), 45.74% and 44.90% and 36.03%; at OX2R T111S/T135A (TAK-925 conc (log, M) -5.91), 30.51% and 19.14% and 15.90%; at OX2R T111S/T135A (TAK-925 conc (log, M) -6.39), 18.69% and 18.10% and 13.23%. The “% IP accumulation” value is 6.54% and 0.00% at OX2R T111S/T135A (TAK-925 conc (log, M) -8.29); 0.00% and 2.28% and 1.85% at OX2R T111S/T135A (TAK-925 conc (log, M) -8.77). Also, on OX2R T111S/T135A (relative to OX2R WT/TAK-925), the Emax was determined as 78. The activation at 100 µM at human OX1R wild-type (0.75 h, TAK-925 conc (log, M) -4.00, normalized to S103T/A127T Emax) was found to be 59%. Besides, at human OX1R wild-type (0.75 h, TAK-925 conc (log, M) -4.48), the activation at 33.1 µM was 40.3%. This compound returned an activation at 11.2 µM at human OX1R wild-type (0.75 h, TAK-925 conc (log, M) -4.95) of 23.1%. This compound registered an activation at 3.72 µM on human OX1R wild-type (0.75 h, TAK-925 conc (log, M) -5.43) of 13.6%. The same compound yielded an activation at 1.23 µM at human OX1R wild-type (0.75 h, TAK-925 conc (log, M) -5.91) of 8.76%. This compound also had an activation at 0.0457 µM on human OX1R wild-type (0.75 h, TAK-925 conc (log, M) -7.34) of 7.24%. Besides, the pEC50 entry on human OX1R wild-type (IP accumulation) was “not saturating”. For the same compound, in the test on OX2R, the “potency for OX2R activation” value is reported as “low-nanomolar”. Further, the “β-arrestin recruitment, change on mutation of Gln134” value on OX2R Q134A is given as “large reductions”.
